Activity calls are given as the source filed them.

Assay [1] can be described thus: Luminescence Cell-Based Dose Confirmation HTS to Identify Activators of 5'UTR Stem-Loop Driven Alpha-Synuclein mRNA Translation in H4 Neuroglioblastoma Cells. [Related pubchem assays: 1829 (Project Summary), 1814 (Primary HTS)]. In kind it is functional.
For a further assay, the system named is H4. The assay is described as follows: Luminescence Cell-Based Dose Response HTS to Identify Activators of 5'UTR Stem-Loop Driven Prion Protein mRNA Translation in H4 Neuroglioblastoma Cells. [Related pubchem assays: 1829 (Project Summary), 1814 (Primary HTS)]. In kind it is functional. As to conditions: Homo sapiens.
Assay [2] can be described thus: Luminescence Cell-Based Dose Response HTS to Identify Activators of Luciferase Translation or Activity in H4 […] Cells. [Related pubchem assays: 1829 (Project Summary), 1814 (Primary HTS)]. Type of assay: functional.
The nature of assay [3]: non-specific 3'UTR reporter inhibition in Clone20-Shn3RL – cell-based, Renilla luciferase, cherry-picked, counter-screen for Shn3 inhibitor project, dose response (AID 624133). Type of assay: functional. For orientation: The purpose of a counterscreen is to sort out artefacts and off-target activity.
The nature of assay [4]: loss of viability in HepG2 cells – cell-based, CellTiter-Glo, cherry-picked, cytotoxicity control for Shn3 inhibitor project, dose response (AID 624134). Type of assay: functional. In general terms: In ATP-based viability assays light output follows the ATP content of the culture.
The nature of assay [5]: reduction of Shn3 3'UTR-driven luciferase in osteoblasts – cell-based, Clone20 osteoblasts, firefly luciferase, cherry-picked, dose response (AID 624132).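 Further: firefly luciferase luminescence from reporter carrying the Shn3 3'UTR in osteoblasts.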 Type of assay: functional.
In another assay the target is Cytochrome P450 3A4 (Homo sapiens, UniProt P08684). The settings on record: Potency.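 Further: confirmatory qHTS run detecting inhibitors and substrates of CYP3A4.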
Cytochrome P450 3A4, sequence (P08684 whole entry): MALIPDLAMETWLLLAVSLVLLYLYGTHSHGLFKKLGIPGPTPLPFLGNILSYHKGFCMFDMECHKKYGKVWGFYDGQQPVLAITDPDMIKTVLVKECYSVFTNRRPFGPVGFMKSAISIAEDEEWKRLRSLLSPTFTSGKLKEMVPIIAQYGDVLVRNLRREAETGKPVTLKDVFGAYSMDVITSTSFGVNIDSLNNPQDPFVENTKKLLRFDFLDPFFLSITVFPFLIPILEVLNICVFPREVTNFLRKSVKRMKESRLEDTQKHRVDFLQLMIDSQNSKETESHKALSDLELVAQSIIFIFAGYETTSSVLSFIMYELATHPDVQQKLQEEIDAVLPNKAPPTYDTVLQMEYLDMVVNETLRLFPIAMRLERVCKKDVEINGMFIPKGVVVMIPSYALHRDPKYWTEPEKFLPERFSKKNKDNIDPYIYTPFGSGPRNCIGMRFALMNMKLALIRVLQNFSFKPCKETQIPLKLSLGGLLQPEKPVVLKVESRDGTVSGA
Assay [6] in a line: Luminescence Cell-Based Dose Confirmation HTS to Identify Inhibitors of Platelet Dense Granule Release. [Related pubchem assays: 1663 (Primary HTS), 1678 (Summary of Project)]. Type of assay: functional.
Assay [7] deals with Luciferin 4-monooxygenase (Photinus pyralis, UniProt P08659). The assay is described as follows: inhibition of purified Photinus pyralis luciferase – biochemical, luminescence, dose response (AID 1891).
Luciferin 4-monooxygenase, sequence (P08659 whole entry): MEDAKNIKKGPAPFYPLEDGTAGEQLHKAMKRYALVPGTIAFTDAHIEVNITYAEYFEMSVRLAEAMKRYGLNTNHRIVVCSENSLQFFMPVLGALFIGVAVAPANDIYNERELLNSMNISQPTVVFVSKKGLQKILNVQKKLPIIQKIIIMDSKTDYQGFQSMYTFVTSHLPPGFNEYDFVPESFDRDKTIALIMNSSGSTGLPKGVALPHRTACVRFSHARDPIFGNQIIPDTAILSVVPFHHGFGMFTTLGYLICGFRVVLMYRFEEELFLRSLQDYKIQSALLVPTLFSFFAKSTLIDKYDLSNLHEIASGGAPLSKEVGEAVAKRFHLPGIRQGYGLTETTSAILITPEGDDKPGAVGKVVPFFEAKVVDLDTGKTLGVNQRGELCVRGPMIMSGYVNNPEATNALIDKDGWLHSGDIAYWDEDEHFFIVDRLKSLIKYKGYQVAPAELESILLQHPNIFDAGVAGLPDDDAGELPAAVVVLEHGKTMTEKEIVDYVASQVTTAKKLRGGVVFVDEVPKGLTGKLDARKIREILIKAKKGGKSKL
Assay [8] addresses T1, Ubiquitin-conjugating enzyme E2 N (Homo sapiens, UniProt P61088).
T1 sequence (P61088 whole entry): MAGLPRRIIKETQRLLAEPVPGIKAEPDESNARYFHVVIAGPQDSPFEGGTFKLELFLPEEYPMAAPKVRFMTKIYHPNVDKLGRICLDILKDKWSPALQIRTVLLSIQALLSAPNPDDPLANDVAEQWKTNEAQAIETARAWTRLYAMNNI
In kind it is functional.
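Wherever IC50 is given: Dose-response confirmation in a TR-FRET assay detecting UBC13-driven polyubiquitin chain formation, inhibition measured.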

Usually EC50 stands for the concentration needed to bring the measured effect to its halfway point. Take `CC1(C)CC(=O)C2=CNc3ccccc3N=C2C1`: the EC50 (in assay [1]; with H4; in assay [2]) was > 120 µM (not active) each time.
In general, AC50 refers to the concentration at which the activity in the assay is half-maximal. As to `CN(Cc1cccc(Cl)c1Cl)C(=O)c1cccc(S(=O)(=O)N2CCN(Cc3ccccc3)CC2)c1`, the AC50 in assay [3] is 17.7 µM (active); in [4] it was 55.6 µM (active); in assay [5] it was 3.38 µM (active).
`Nc1c(-c2ccc(Cl)cc2)nnn1-c1ccccc1`: the EC50 in assay [1] was 0.217 µM (active); in the assay with H4, 13.2 µM (active); in assay [2] it was 0.135 µM (inconclusive).
For `Oc1ccc2c(c1)OC(c1ccc(O)c(O)c1)C(O)C2` (stereo not given), on Cytochrome P450 3A4, the AC50 was 25.1 µM (inconclusive).
With `CC(=O)c1ccc(NC(=O)CCc2nnc3ccc(NCc4ccco4)nn23)cc1`, the EC50 in assay [1] was 6.27 µM (active); in assay [6] it was > 112 µM (not active); with H4 it was > 120 µM (not active); in [7] it was > 112 µM (not active); in [2], 11.2 µM (active).
On to `Cc1ccc(NC(=O)c2ccc(S(=O)(=O)NCc3ccco3)cc2)nc1`, for which the EC50 in [1] is 15.2 µM (active); in the assay on H4, 49.7 µM (active); in assay [2] it was 11.1 µM (active).
The like results for `COc1cccc(NC(=O)c2nnn(CCc3ccccc3)c2N)c1` were, in that order, 6.28 µM (active), 4.53 µM (active) and 6.24 µM (active).
By IC50 is commonly meant the concentration that inhibits the measured activity by half. For `CSCCC(NC(=O)c1ccc(Cl)cc1Cl)C(=O)NNC(=O)c1csc(N2CCOCC2)n1` (stereo not given), in assay [8], the IC50 was > 20 µM (inactive).
In the case of `Cn1c(=O)c2c(nc(SCCN3CCOCC3)n2Cc2ccc(F)cc2)n(C)c1=O`, the EC50 in assay [1] was 0.262 µM (active); in the assay on H4 it was > 120 µM (not active); in [2], 5.27 µM (active).
Regarding `COC(=O)[C@]1(C)CC[C@@]2(C)CC[C@@]3(C)C4=CC=C5C(=CC(=O)C(O)=C5C)[C@@]4(C)CC[C@@]3(C)C2C1` (stereo not given in full), the AC50 at Cytochrome P450 3A4 was 31.6 µM (inconclusive).
Turning to `CC(=O)N1[C@H](C)C=C[C@]1(Cc1ccccc1)C(=O)O`, the AC50 at Cytochrome P450 3A4 was 31.6 µM (inconclusive).
Turning to `C=CCn1c(=O)c(C(=O)Nc2ccccc2S(N)(=O)=O)c(O)c2ccccc21`, in assay [8], the IC50 was > 20 µM (inactive).
On to `CCCCCCC1=Cc2cc(OC)c(OC)cc2C(C2(C(=O)OCC)CCCC2=O)O1` (stereo not given), for which, on Cytochrome P450 3A4, the AC50 is 3.16 µM (inconclusive).
Turning to `COC(=O)N1CC=CC1(C)C(=O)NCc1ccc(C)o1` (stereo not given), the AC50 on Cytochrome P450 3A4 was 15.8 µM (inconclusive).
As for `COc1ccc(C[C@H]2COC(=O)[C@@H]2Cc2ccc(OC3OC(CO)C(O)C(O)C3O)c(OC)c2)cc1OC` (stereo not given in full), the AC50 in [3] was 15.5 µM (active); in [4], 48.3 µM (active); in assay [5], 4.43 µM (active).
Consider `Nc1ccc2c(c1)C(=O)Cc1ccccc1S2`, for which the IC50 in [8] was > 20 µM (inactive).
Regarding `O=C1c2sc3nc4ccccc4n3c2C(=O)N1c1ccccc1Cl`, the EC50 in assay [1] is > 120 µM (not active); with H4, > 120 µM (not active); in [2], 13.8 µM (active).
For `NC(=O)c1c(NC(=O)C(=O)NCCCN2CCOCC2)sc2c1CCCC2`, the IC50 in [8] was > 20 µM (inactive).
For `C=CCSSCC=C`, the AC50 at Cytochrome P450 3A4 was 25.1 µM (inconclusive).
Same read-out and setting: the result for `COc1ccc(-c2cc(=O)c3c(O)cc(O)c(-c4cc(-c5cc(=O)c6c(O)cc(O)cc6o5)ccc4OC)c3o2)cc1` [ISOGINKGETIN] reads 3.98 µM (inconclusive).

Values taken from ChEMBL document CHEMBL1201862, “PubChem BioAssay data set” (2004).
